What was measured:
Format in all cases: cell-based
[1] = molecular target: T1, TRPML2 (Homo sapiens, UniProt Q8IZK6); experiment: Fluorescent TRPML2 assay (performed as for TRPML1, substituting the TRPML2 subtype)
T1 construct: expressed in transfected cells
T1 sequence (Q8IZK6 1-566): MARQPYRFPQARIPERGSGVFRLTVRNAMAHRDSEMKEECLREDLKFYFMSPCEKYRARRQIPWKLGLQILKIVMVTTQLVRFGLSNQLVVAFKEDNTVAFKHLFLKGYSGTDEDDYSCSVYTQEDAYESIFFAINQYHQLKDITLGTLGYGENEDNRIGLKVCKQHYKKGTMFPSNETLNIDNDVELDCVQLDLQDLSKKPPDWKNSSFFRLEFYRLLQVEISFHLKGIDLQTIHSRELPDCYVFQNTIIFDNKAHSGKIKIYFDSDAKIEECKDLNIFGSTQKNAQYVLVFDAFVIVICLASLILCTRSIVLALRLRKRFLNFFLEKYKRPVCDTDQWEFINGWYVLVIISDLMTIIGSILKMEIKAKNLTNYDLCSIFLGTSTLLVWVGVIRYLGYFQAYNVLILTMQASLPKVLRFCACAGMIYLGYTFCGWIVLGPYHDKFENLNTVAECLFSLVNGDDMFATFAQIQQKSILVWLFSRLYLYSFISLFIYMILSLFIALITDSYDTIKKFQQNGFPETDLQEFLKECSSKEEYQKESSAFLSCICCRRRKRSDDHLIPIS
Outline: (§1)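 HEK-293 Trex cells with doxycycline-induced (0.5 ug/mL) surface-directed human TRPML subtype, loaded with 1 μM Fluo4-AM, resuspended in Ringer's with 10 mM calcium. Compounds at 20 μM to 6 nM final in half-log steps, triplicate; fluorescence ex 480/em 540; EC50 by non-linear regression versus plate controls.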

[2] = molecular target: TRPML1 (Homo sapiens, UniProt Q9GZU1); experiment: Fluorescent TRPML1 assay (Fluo4-AM calcium fluorescence in doxycycline-induced HEK-293 Trex cells)
TRPML1, sequence (Q9GZU1 whole entry L15A/L16A/L577A/L578A, form open): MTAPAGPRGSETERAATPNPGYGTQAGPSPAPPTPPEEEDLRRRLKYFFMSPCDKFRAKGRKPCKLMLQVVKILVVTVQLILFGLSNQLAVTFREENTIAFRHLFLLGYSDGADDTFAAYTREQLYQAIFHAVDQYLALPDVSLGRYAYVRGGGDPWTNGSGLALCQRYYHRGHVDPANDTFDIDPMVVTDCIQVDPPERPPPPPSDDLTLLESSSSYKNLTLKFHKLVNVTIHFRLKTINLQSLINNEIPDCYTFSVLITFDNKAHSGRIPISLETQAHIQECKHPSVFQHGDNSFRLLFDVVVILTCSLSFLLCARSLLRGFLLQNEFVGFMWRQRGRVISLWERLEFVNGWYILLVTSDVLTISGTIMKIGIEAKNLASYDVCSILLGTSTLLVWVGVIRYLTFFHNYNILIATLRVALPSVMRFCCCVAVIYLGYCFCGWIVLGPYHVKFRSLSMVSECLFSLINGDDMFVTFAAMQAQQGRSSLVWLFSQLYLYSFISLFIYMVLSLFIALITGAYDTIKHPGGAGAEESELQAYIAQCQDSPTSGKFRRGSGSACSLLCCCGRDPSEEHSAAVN
Outline: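 HEK-293 Trex cells stably expressing surface-directed mutant human TRPML1, induced with 0.5 µg/mL doxycycline overnight, were loaded with 1 µM Fluo4-AM and added to compound (6 nM–20 µM final, half-log steps, triplicate) in Ringer's with 10 mM calcium. Fluorescence ex 480/em 540; EC50 by non-linear regression versus plate controls.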

[3] = molecular target: T2, TRPML3 (Homo sapiens, UniProt Q8TDD5); experiment: Fluorescent TRPML3 assay (performed as for TRPML1, substituting the TRPML3 subtype)
T2 construct: expressed in transfected cells
T2 sequence (Q8TDD5 1-553): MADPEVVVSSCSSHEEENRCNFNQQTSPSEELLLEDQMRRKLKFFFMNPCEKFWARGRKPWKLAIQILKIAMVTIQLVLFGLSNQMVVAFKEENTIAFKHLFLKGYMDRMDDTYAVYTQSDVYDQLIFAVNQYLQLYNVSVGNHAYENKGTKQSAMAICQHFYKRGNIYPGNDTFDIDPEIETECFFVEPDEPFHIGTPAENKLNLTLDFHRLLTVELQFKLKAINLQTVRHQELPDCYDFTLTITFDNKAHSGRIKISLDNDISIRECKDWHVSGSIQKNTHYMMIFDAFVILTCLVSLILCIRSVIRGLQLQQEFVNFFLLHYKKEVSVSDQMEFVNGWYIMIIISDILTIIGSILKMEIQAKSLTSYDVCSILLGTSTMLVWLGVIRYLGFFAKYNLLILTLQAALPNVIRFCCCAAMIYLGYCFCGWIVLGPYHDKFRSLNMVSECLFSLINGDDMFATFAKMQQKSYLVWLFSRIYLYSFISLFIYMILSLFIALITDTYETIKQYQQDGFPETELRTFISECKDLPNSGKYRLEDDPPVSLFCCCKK
Outline: as §1

| Compound | EC50 [1] [nM] | EC50 [2] [nM] | EC50 [3] [nM] |
| --- | --- | --- | --- |
| C[C@H]1CN(C(=O)OC(C)(C)C)CCN1c1ncnc2c1c(C(F)F)cn2-c1cc(C#N)ccn1 [Compound 514, tert-butyl (S)-4-(7-(4-cyanopyridin-2-yl)-5-(difluoromethyl)-7H-pyrrolo[2,3-d]pyrimidin-4-yl)-3-methylpiperazine-1-carboxylate] | < 100 | < 100 | < 100 |
| C[C@@H]1CN(c2ncnc3c2c(C(F)(F)F)cn3-c2cc(C#N)ccn2)[C@@H](C)CN1C(=O)OC1CCC1 [Compound 516, cyclobutyl (2R,5S)-4-(7-(4-cyanopyridin-2-yl)-5-(trifluoromethyl)-7H-pyrrolo[2,3-d]pyrimidin-4-yl)-2,5-dimethylpiperazine-1-carboxylate] | < 100 | < 100 | < 100 |
| Cc1cc(C#N)cc(-n2cc(C(F)(F)F)c3c(N4C[C@@H](C)N(C(=O)OC(C)(C)C)C[C@@H]4C)ncnc32)n1 [Compound 517, tert-butyl (2R,5S)-4-(7-(4-cyano-6-methylpyridin-2-yl)-5-(trifluoromethyl)-7H-pyrrolo[2,3-d]pyrimidin-4-yl)-2,5-dimethylpiperazine-1-carboxylate] | 100 to 500 | < 100 | < 100 |
| [2H]C([2H])([2H])C(OC(=O)N1C[C@H](C)N(c2ncnc3c2c(C(F)(F)F)cn3-c2cc(C#N)ccn2)C[C@H]1C)(C([2H])([2H])[2H])C([2H])([2H])[2H] [Compound 518, 2-(methyl-d3)propan-2-yl-1,1,1,3,3,3-d6 (2R,5S)-4-(7-(4-cyanopyridin-2-yl)-5-(trifluoromethyl)-7H-pyrrolo[2,3-d]pyrimidin-4-yl)-2,5-dimethylpiperazine-1-carboxylate] | < 100 | < 100 | < 100 |
| C[C@@H]1CN(c2ncnc3c2c(C(F)(F)F)cn3-c2cc(C#N)ccn2)[C@@H](C)CN1C(=O)OC1(C)CC1 [Compound 519, 1-methylcyclopropyl (2R,5S)-4-(7-(4-cyanopyridin-2-yl)-5-(trifluoromethyl)-7H-pyrrolo[2,3-d]pyrimidin-4-yl)-2,5-dimethylpiperazine-1-carboxylate] | 100 to 500 | < 100 | < 100 |
| C[C@@H]1CN(c2ncnc3c2c(C(F)F)cn3-c2cc(C#N)ccn2)[C@@H](C)CN1C(=O)OC(C)(C)C [Compound 520, tert-butyl (2R,5S)-4-(7-(4-cyanopyridin-2-yl)-5-(difluoromethyl)-7H-pyrrolo[2,3-d]pyrimidin-4-yl)-2,5-dimethylpiperazine-1-carboxylate] | 100 to 500 | < 100 | < 100 |
| C[C@@H]1CN(c2ncnc3c2c(OC(F)F)cn3-c2cc(Cl)ccn2)[C@@H](C)CN1C(=O)OC(C)(C)C [Compound 521, tert-butyl (2R,5S)-4-(7-(4-chloropyridin-2-yl)-5-(difluoromethoxy)-7H-pyrrolo[2,3-d]pyrimidin-4-yl)-2,5-dimethylpiperazine-1-carboxylate] | 500 to 2000 | < 100 | < 100 |
| C[C@H]1CN(C(=O)OC(C)(C)C)CCN1c1ncnc2c1c(N(C)C1CC1)cn2-c1cccc(Cl)c1 [Compound 522, tert-butyl (S)-4-(7-(3-chlorophenyl)-5-(cyclopropyl(methyl)amino)-7H-pyrrolo[2,3-d]pyrimidin-4-yl)-3-methylpiperazine-1-carboxylate] | 100 to 500 | 100 to 500 | < 100 |
| C[C@@H]1CN(c2ncnc3c2c(OC(F)F)cn3-c2cc(C#N)ccn2)[C@@H](C)CN1C(=O)OC(C)(C)C [Compound 523, tert-butyl (2R,5S)-4-(7-(4-cyanopyridin-2-yl)-5-(difluoromethoxy)-7H-pyrrolo[2,3-d]pyrimidin-4-yl)-2,5-dimethylpiperazine-1-carboxylate] | < 100 | < 100 | < 100 |
| C[C@@H]1CN(c2ncnc3c2c(OC(F)(F)F)cn3-c2cc(C#N)ccn2)[C@@H](C)CN1C(=O)OC(C)(C)C [Compound 524, tert-butyl (2R,5S)-4-(7-(4-cyanopyridin-2-yl)-5-(trifluoromethoxy)-7H-pyrrolo[2,3-d]pyrimidin-4-yl)-2,5-dimethylpiperazine-1-carboxylate] | < 100 | < 100 | < 100 |
| C[C@@H]1CN(c2ncnc3c2c(C(C)(C)C)cn3-c2cc(C#N)ccn2)[C@@H](C)CN1C(=O)OC(C)(C)C [Compound 525, tert-butyl (2R,5S)-4-(5-(tert-butyl)-7-(4-cyanopyridin-2-yl)-7H-pyrrolo[2,3-d]pyrimidin-4-yl)-2,5-dimethylpiperazine-1-carboxylate] | < 100 | < 100 | < 100 |
| C[C@H]1CN(C(=O)OC(C)(C)C)CCN1c1ncnc2c1c(N(C)C1CC1)cn2-c1cccc(C#N)c1 [Compound 526] | 100 to 500 | 100 to 500 | 100 to 500 |
| C[C@H]1CN(C(=O)OC(C)(C)C)CCN1c1ncnc2c1c(C1CC1)cn2[C@H]1CCC[C@@H](C#N)C1 [Compound 527, tert-butyl (S)-4-(7-(cis-3-cyanocyclohexyl)-5-cyclopropyl-7H-pyrrolo[2,3-d]pyrimidin-4-yl)-3-methylpiperazine-1-carboxylate] | > 2000 | 500 to 2000 | 500 to 2000 |
| CC(C)(C)OC(=O)N1CCN(c2ncnc3c2c(C(F)(F)F)cn3-c2cc(C#N)ccn2)C(C)(C)C1 [Compound 528, tert-butyl 4-(7-(4-cyanopyridin-2-yl)-5-(trifluoromethyl)-7H-pyrrolo[2,3-d]pyrimidin-4-yl)-3,3-dimethylpiperazine-1-carboxylate] | < 100 | 100 to 500 | < 100 |
| C[C@H]1CN(C(=O)OC(C)(C)C)CCN1c1ncnc2c1c(N1CCCC1)cn2[C@H]1CCC[C@@H](C#N)C1 [Compound 529, tert-butyl (S)-4-(7-(cis-3-cyanocyclohexyl)-5-(pyrrolidin-1-yl)-7H-pyrrolo[2,3-d]pyrimidin-4-yl)-3-methylpiperazine-1-carboxylate] | > 2000 | 500 to 2000 | 100 to 500 |
| CC(C)(C)OC(=O)N1CCN(c2ncnc3c2c(C(F)(F)F)cn3-c2cc(C#N)ccn2)C2(CC2)C1 [Compound 530, tert-butyl 4-(7-(4-cyanopyridin-2-yl)-5-(trifluoromethyl)-7H-pyrrolo[2,3-d]pyrimidin-4-yl)-4,7-diazaspiro[2.5]octane-7-carboxylate] | < 100 | < 100 | < 100 |
| C[C@@H]1CN(c2ncnc3c2c(C(C)(C)C)cn3-c2nccc(C#N)n2)[C@@H](C)CN1C(=O)OC(C)(C)C [Compound 532, tert-butyl (2R,5S)-4-(5-(tert-butyl)-7-(4-cyanopyrimidin-2-yl)-7H-pyrrolo[2,3-d]pyrimidin-4-yl)-2,5-dimethylpiperazine-1-carboxylate] | 500 to 2000 | < 100 | 100 to 500 |
| C[C@@H]1CN(c2ncnc3c2c(C(C)(C)C)cn3-c2cc(C#N)ncn2)[C@@H](C)CN1C(=O)OC(C)(C)C [Compound 533, tert-butyl (2R,5S)-4-(5-(tert-butyl)-7-(6-cyanopyrimidin-4-yl)-7H-pyrrolo[2,3-d]pyrimidin-4-yl)-2,5-dimethylpiperazine-1-carboxylate] | < 100 | < 100 | < 100 |
